Measured values: US12692249B2, “WDR5 inhibitors and modulators” (Vanderbilt University, priority 2019, dated 2026)
Like-named read-outs stand apart in the source and are kept apart here.

How the values were obtained:
[1] = tested on: MV4:11 human cancer cell lines; test: Cellular viability / anti-proliferative assay, CellTiter-Glo, 5 day protocol; type: cell-based; details: Homo sapiens, MV4-11, 120 h, read-out: GI50 on cellular proliferation of MV4:11 human cancer cell lines
Method in brief: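 Luminescent ATP-based viability (CellTiter-Glo) after a 5-day exposure gave GI50 via sigmoidal fitting, averaged over two or more replicates. Compounds spanned 22 two-fold steps down from 30 μM at 0.3% DMSO, on 200 MV-4-11 cells per well grown in IMDM plus 10% FBS.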

WDR5 = WDR5 (Homo sapiens, UniProt P61964); test: TR-FRET competition binding assay, displacement of 10mer-Thr-FAM MLL peptide probe from His-tagged WDR5; details: WDR5-His tag (residues 24-334) 2 nM; 10mer-Thr-FAM 150 nM; 60 min, room temperature; read-out: Ki for Inhibition of WDR5 by TR-FRET assay
[2] = MV4:11 cells, 5 day incubation, CellTiter-Glo, mean of at least two replicates

Row | SMILES | GI50 [1, 2] | Ki (WDR5) | GI50 [1]
1 | COc1cc(C)c2nccc(N3CCc4c(cc(Cn5ccnc5C)cc4-c4cn(C)nc4C(F)(F)F)C3=O)c2c1 [Example 7, 2-(6-Methoxy-8-methylquinolin-4-yl)-7-((2-methyl-1H-imidazol-1-yl)methyl)-5-(1-methyl-3-(trifluoromethyl)-1H-pyrazol-4-yl)-3,4-dihydroisoquinolin-1(2H)-one] | 29 nM | 0.026 nM | –
2 | COc1cc(C2=CCOCC2)c2nc(C)cc(N3CCc4c(cc(Cn5ccnc5)cc4-c4cn(C)nc4C(F)(F)F)C3=O)c2c1 [Example 151, 7-((1H-imidazol-1-yl)methyl)-2-(8-(3,6-dihydro-2H-pyran-4-yl)-6-methoxy-2-methylquinolin-4-yl)-5-(1-methyl-3-(trifluoromethyl)-1H-pyrazol-4-yl)-3,4-dihydroisoquinolin-1(2H)-one] | 55 nM | < 0.02 nM | –
3 | COc1cnc2c(C)ccc(N3CCc4c(cc(Cn5ccnc5)cc4-c4cn(C)nc4C(F)(F)F)C3=O)c2c1 [Example 206, 7-((1H-Imidazol-1-yl)methyl)-2-(3-methoxy-8-methylquinolin-5-yl)-5-(1-methyl-3-(trifluoromethyl)-1H-pyrazol-4-yl)-3,4-dihydroisoquinolin-1(2H)-one] | 43 nM | 0.022 nM | –
4 | CCn1cc(-c2cc(Cn3ccnc3C)cc3c2CCN(c2cc(C)nc4ccc(OC)cc24)C3=O)c(C(F)(F)F)n1 [Example 51, 5-(1-Ethyl-3-(trifluoromethyl)-1H-pyrazol-4-yl)-2-(6-methoxy-2-methylquinolin-4-yl)-7-((2-methyl-1H-imidazol-1-yl)methyl)-3,4-dihydroisoquinolin-1(2H)-one] | < 20 nM | < 0.02 nM | –
5 | COc1cc(CO)c2nccc(N3CCc4c(cc(Cn5ccnc5)cc4-c4cn(C)nc4C(F)(F)F)C3=O)c2c1 [Example 94, 7-((1H-Imidazol-1-yl)methyl)-2-(8-(hydroxymethyl)-6-methoxyquinolin-4-yl)-5-(1-methyl-3-(trifluoromethyl)-1H-pyrazol-4-yl)-3,4-dihydroisoquinolin-1(2H)-one] | 28 nM | 0.039 nM | –
6 | CCc1cc(C(=O)NCCNC(=O)c2cscn2)c2nccc(N3CCc4c(cc(Cn5ccnc5)cc4-c4cn(C)nc4C(F)(F)F)C3=O)c2c1 [Example 216, N-(2-(4-(7-((1H-Imidazol-1-yl)methyl)-5-(1-methyl-3-(trifluoromethyl)-1H-pyrazol-4-yl)-1-oxo-3,4-dihydroisoquinolin-2(1H)-yl)-6-ethylquinoline-8-carboxamido)ethyl)thiazole-4-carboxamide] | < 20 nM | < 0.02 nM | –
7 | COc1cc(CN2CCCCC2)c2nccc(N3CCc4c(cc(Cn5ccnc5)cc4-c4cn(C)nc4C(F)(F)F)C3=O)c2c1 [Example 128] | – | 0.038 nM | < 20 nM
8 | COc1cc2c(N3CCc4c(cc(Cn5ccnc5)cc4-c4cn(C)nc4C(F)(F)F)C3=O)cccc2nc1C [Example 114, 7-((1H-Imidazol-1-yl)methyl)-2-(3-methoxy-2-methylquinolin-5-yl)-5-(1-methyl-3-(trifluoromethyl)-1H-pyrazol-4-yl)-3,4-dihydroisoquinolin-1(2H)-one] | 43 nM | 0.038 nM | –
9 | CCc1cc(N(C)C)c2nccc(N3CCc4c(cc(Cn5ccnc5)cc4-c4cn(C)nc4C(F)(F)F)C3=O)c2c1 [Example 35, 7-((1H-Imidazol-1-yl)methyl)-2-(8-(dimethylamino)-6-ethylquinolin-4-yl)-5-(1-methyl-3-(trifluoromethyl)-1H-pyrazol-4-yl)-3,4-dihydroisoquinolin-1(2H)-one] | 76 nM | < 0.02 nM | –
10 | CNC(=O)c1cc(OC)cc2c(N3CCc4c(cc(Cn5ccnc5)cc4-c4cn(C)nc4C(F)(F)F)C3=O)ccnc12 [Example 42, 4-(7-((1H-Imidazol-1-yl)methyl)-5-(1-methyl-3-(trifluoromethyl)-1H-pyrazol-4-yl)-1-oxo-3,4-dihydroisoquinolin-2(1H)-yl)-6-methoxy-N-methylquinoline-8-carboxamide] | 20 nM | < 0.02 nM | –
11 | COc1ccc2c(c1)c(N1CCc3c(cc(Cn4ccnc4C)cc3-c3cn(C)nc3C(F)(F)F)C1=O)cn2C [Example 78, 2-(5-Methoxy-1-methyl-1H-indol-3-yl)-7-((2-methyl-1H-imidazol-1-yl)methyl)-5-(1-methyl-3-(trifluoromethyl)-1H-pyrazol-4-yl)-3,4-dihydroisoquinolin-1(2H)-one] | 48 nM | 0.029 nM | –
12 | CCc1cc(C(=O)NC2CCOCC2)c2nccc(N3CCc4c(cc(Cn5ccnc5)cc4-c4cn(C)nc4C(F)(F)F)C3=O)c2c1 [Example 171, 4-(7-((1H-Imidazol-1-yl)methyl)-5-(1-methyl-3-(trifluoromethyl)-1H-pyrazol-4-yl)-1-oxo-3,4-dihydroisoquinolin-2(1H)-yl)-6-ethyl-N-(tetrahydro-2H-pyran-4-yl)quinoline-8-carboxamide] | < 20 nM | < 0.02 nM | –
13 | COc1cc2c(N3CCc4c(cc(Cn5ccnc5C)cc4-c4cn(C)nc4C(F)(F)F)C3=O)ccnc2cc1C [Example 6, 2-(6-Methoxy-7-methylquinolin-4-yl)-7-((2-methyl-1H-imidazol-1-yl)methyl)-5-(1-methyl-3-(trifluoromethyl)-1H-pyrazol-4-yl)-3,4-dihydroisoquinolin-1(2H)-one] | 32 nM | 0.024 nM | –
14 | COc1cnc2cncc(N3CCc4c(cc(Cn5ccnc5)cc4-c4cn(C)nc4C(F)(F)F)C3=O)c2c1 [Example 214, 7-((1H-imidazol-1-yl)methyl)-2-(3-methoxy-1,7-naphthyridin-5-yl)-5-(1-methyl-3-(trifluoromethyl)-1H-pyrazol-4-yl)-3,4-dihydroisoquinolin-1(2H)-one] | < 20 nM | < 0.02 nM | –
15 | Cc1nccn1Cc1cc2c(c(-c3cn(C)nc3C(F)(F)F)c1)CCN(c1cccc3ccccc13)C2=O [Example 1, 7-((2-Methyl-1H-imidazol-1-yl)methyl)-5-(1-methyl-3-(trifluoromethyl)-1H-pyrazol-4-yl)-2-(naphthalen-1-yl)-3,4-dihydroisoquinolin-1(2H)-one] | 1540 nM | 0.46 nM | –
16 | CCc1cc(COC)c2nccc(N3CCc4c(cc(Cn5ccnc5)cc4-c4cn(C)nc4C(F)(F)F)C3=O)c2c1 [Example 188, 7-((1H-Imidazol-1-yl)methyl)-2-(6-ethyl-8-(methoxymethyl)quinolin-4-yl)-5-(1-methyl-3-(trifluoromethyl)-1H-pyrazol-4-yl)-3,4-dihydroisoquinolin-1(2H)-one] | < 20 nM | < 0.02 nM | –
17 | Cc1nccn1Cc1cc2c(c(-c3cn(C)nc3C(F)(F)F)c1)CCN(C1CCCc3ccc(Br)cc31)C2=O (stereo not drawn) [Example 60] | 38 nM | 0.023 nM | –
18 | COc1cc(C(=O)NS(C)(=O)=O)c2nc(C)cc(N3CCc4c(cc(Cn5ccnc5)cc4-c4cn(C)nc4C(F)(F)F)C3=O)c2c1 [Example 181, 4-(7-((1H-Imidazol-1-yl)methyl)-5-(1-methyl-3-(trifluoromethyl)-1H-pyrazol-4-yl)-1-oxo-3,4-dihydroisoquinolin-2(1H)-yl)-6-methoxy-2-methyl-N-(methylsulfonyl)quinoline-8-carboxamide] | 856 nM | 0.04 nM | –
